Here are results for 13 compounds from paper PMC3289605, “A Novel G Protein-Coupled Receptor of Schistosoma mansoni (SmGPR-3) Is Activated by Dopamine and Is Widely Expressed in the Nervous System” (PLoS Neglected Tropical Diseases, 2012).

By EC50 is commonly meant the concentration that produces a half-maximal response. A lower EC50 goes with a more potent agent. As usually defined, the IC50 is the point on the concentration scale where inhibition reaches its midpoint. Read a low IC50 as greater potency in that assay.

Data set [1] relates to S. mansoni schistosomula. The data set is described as follows: Motor activity of schistosomula in culture (frequency of body length changes). It is filed as cell-based, Schistosoma mansoni. The settings on record: for concentration at which significant inhibition of motility was observed: range tested 10^−7 M–10^−4 M. Here is the method: 3-day old in vitro transformed schistosomula were placed in individual wells of a 24-well plate (30–40 animals/well) in 300 µl of OPTI-MEM+10% dialyzed serum. Following an adaptation period of 15 min at room temperature, test substances were added at a final concentration of 100 µM or as indicated. Animals were monitored 5 min after drug addition by placing the 24-well plate on a compound microscope (Nikon, SMZ1500) equipped with a digital video camera (QICAM Fast 1394, mono 12 bit, Qimaging) and SimplePCI version 5.2 (Compix Inc.) for image acquisition. Images were obtained at a rate of ≈3 frames/s for a period of 1 minute and the data were analyzed with ImageJ software (version 1.41, NIH, USA). Cultured schistosomula display complex motor behaviours that are dominated by repeated changes in length, both shortening and elongation. To quantify this type of movement, we used the “Fit-Ellipse” command of ImageJ to draw best-fit ellipses of individual animals in each recorded frame. An estimate of body length was obtained by measuring the principal (“major”) axis of each ellipse, using calibrated units (µm), and the frequency of length changes during the observation period was calculated. Any change representing >10% of body length, whether an increase or decrease, was included in the calculation; changes ≤10% were disregarded. Between 12–15 animals were monitored per well and the experiment was repeated a minimum of 3 times. To monitor for possible drug induced toxicity, viability tests were performed routinely using the methylene blue dye exclusion assay described by Gold.
To explore this possibility we tested the effects of several SmGPR-3 agonists and antagonists on the motor activity of intact schistosomula in culture. […] We used a larval stage (schistosomula) instead of adult worms because the larvae are better suited for quantitative measurements of movement. […] To quantitate motor activity, we monitored individual schistosomula in the presence and absence of test substances, using a microscope equipped with a video camera and imaging software. Approximately 180 consecutive frames were recorded for each animal over 1 min of observation and the approximate length of the animal in each frame was measured in calibrated units (µm). […] To quantify the level of motor activity, we repeated experiments at different concentrations of each amine and then calculated the frequency of length changes, both decrease and increase for each individual animal during the 1 min of observation. Mean values were obtained from the average of 12–15 animals/experiment and each experiment was repeated a minimum of 3 times.
Figure 7 Effects of dopamine and related substances on schistosome motility. (A) In vitro transformed 3-day-old schistosomula were incubated with test drug, dopamine (DA) or epinine (EPN), each at (10^−4 M) or vehicle (CT, control). Animals were treated for 5 min at room temperature, after which they were examined with a compound microscope equipped with a digital video camera and SimplePCI (Compix Inc.) for image acquisition. Images were recorded for 1 minute (∼3 frames/second) and an estimate of body length in µm was obtained for each animal in every frame. Each tracing shown is of an individual animal and is representative of 12–15 larvae per experiment and 3–4 independent experiments per treatment.

Data set [2] deals with T1, SmGPR-3 (Schistosoma mansoni, UniProt C4Q8W8).
T1 sequence (C4Q8W8 1-497): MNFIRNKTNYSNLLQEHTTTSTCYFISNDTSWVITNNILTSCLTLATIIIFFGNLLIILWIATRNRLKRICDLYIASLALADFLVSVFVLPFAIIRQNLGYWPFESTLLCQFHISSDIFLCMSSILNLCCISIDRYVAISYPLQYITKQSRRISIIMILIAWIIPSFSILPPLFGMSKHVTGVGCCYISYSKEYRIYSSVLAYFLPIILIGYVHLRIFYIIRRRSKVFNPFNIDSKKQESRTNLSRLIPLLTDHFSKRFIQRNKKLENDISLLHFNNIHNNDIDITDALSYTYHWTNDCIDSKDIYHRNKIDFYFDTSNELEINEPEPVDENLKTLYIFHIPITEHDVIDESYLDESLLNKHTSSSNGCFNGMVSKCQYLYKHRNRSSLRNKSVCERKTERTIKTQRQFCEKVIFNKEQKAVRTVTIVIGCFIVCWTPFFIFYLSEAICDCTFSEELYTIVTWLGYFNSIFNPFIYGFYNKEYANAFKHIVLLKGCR
The data set is described as follows: cell-based. The text has this: (§1) The SmGPR-3 coding sequence was sub-cloned between the NcoI/XbaI restriction sites of the yeast expression vector Cp4258 (kindly provided by Dr J. Broach, Princeton University, NJ, USA). The functional expression assay was adapted from the protocol of Wang and colleagues as described, [30]. The receptor was expressed in Saccharomyces cerevisiae strain YEX108 (MATα PFUS1-HIS3 PGPA1-Gαq(41)-GPA1-Gaq(5) can1 far1Δ 1442 his3 leu2 lys2 sst2Δ2 ste14::trp1::LYS2 ste18Δ6-3841 ste3Δ1156 tbt1-1 trp1 ura3; kindly provided by J. Broach, Princeton University, NJ, USA). This strain expresses the HIS3 reporter gene under the control of the FUS1 promoter and contains an integrated copy of a chimeric Gα gene in which the first […] and last five codons of native yeast Gα (GPA1) were replaced with those of human Gαq. […] YPD culture medium (1% yeast extract, 2% peptone and 2% dextrose) was used to culture YEX108 strain, according to standard conditions. The lithium acetate method was performed to transform yeast with either empty Cp4258 vector (mock) or Cp4258/SmGPR-3 expression plasmid, using 200 µl mid-log phase cells, 200 µg carrier single stranded DNA (Invitrogen) and 1 µg plasmid. Positive transformants were selected on synthetic complete (SC) 2% glucose solid medium lacking leucine (SC/leu^−). For agonist assays, single colonies of transformants were cultured overnight in SC/leu^− liquid medium at 250 rpm/30°C. The next day, cells were washed four times in SC 2% glucose liquid medium that lacked both leucine and histidine (SC/leu^−/his^−). Cells were finally resuspended in SC/leu^−/his^− medium supplemented with 50 mM 3-(N-morpholino) propanesulfonic acid (MOPS), pH 6.8 and 1.5 mM 3-Amino-1, 2, 4-Triazole (3-AT). The latter was used to reduce basal growth due to endogenous background signalling as it inhibits the gene product of HIS3 [29]. Aliquots containing approximately 3,000 cells were added to individual wells of a 96-well plate containing test agonist or vehicle plus additional medium for a total reaction volume of 100 µl. The plates were incubated at 30°C for 22–26 h, after which 10 µl of Alamar blue (Invitrogen) was added to each well. The plates were returned to the 30°C incubator until the Alamar blue color started to shift to pink (approximately 1–4 h) and fluorescence (560 nm excitation/590 nm emission) was measured at 30°C every hour up to three hours, using a plate fluorometer (FlexStation II, Molecular Devices, US). Antagonist assays were done in a similar way, except that each well contained 10^−4 M agonist (dopamine) and the antagonist at the specified concentration. Data analyses and dose-response curve fits were performed using Prism v5.0 (GraphPad software Inc.).
Functional expression assays were performed in yeast. […] The full-length SmGPR-3 cDNA was ligated to the Cp4258 vector and the recombinant plasmid was transformed into Saccharomyces cerevisae to test for receptor activity. We used a genetically modified S. cerevisae strain that is designed for GPCR activity assays. The yeast is auxotrophic for histidine and expresses a HIS3 reporter gene under the control of the FUS1 promoter. Activation of a recombinant GPCR in this system increases expression of the HIS3 reporter via the yeast's endogenous pheromone response, which in turn allows the cells to grow in selective histidine-deficient medium. Thus receptor activity can be quantified based on measurements of yeast growth in the selective medium, using a fluorometric Alamar Blue assay. Cells transformed with either empty vector (mock control) or SmGPR-3 were initially tested with all different biogenic amines, each at 2×10^−4 M (Fig. 3A).
Yeast cells transformed with empty plasmid were used as a negative control (mock).

In data set [3] the target is T1, SmGPR-3. As to the kind of experiment: cell-based. As to conditions: for inhibition of SmGPR-3 activity: highest concentration tested, in the presence of 100 µM DA.
Text: as §1
(§2) Next we examined the effects of classical (mammalian) dopaminergic and other BA antagonists on the activity of SmGPR-3. Drugs were tested initially at a single concentration of 100 µM (10 µM in the case of flupenthixol) in the presence of 100 µM DA (Fig. 4A). […] Those drugs that produced significant inhibition (>50%) in the initial screen were subsequently tested at different concentrations to obtain dose response curves (Fig. 4B–F). […] To test this possibility, we repeated the assay in medium supplemented with histidine (100 µM), which enables cell growth irrespective of receptor activation.
Figure 4 Antagonist effects on SmGPR-3 activity. (A) Yeast YEX108 auxotrophic his strain expressing SmGPR-3 was incubated with agonist (DA, 100 µM) and test antagonist or vehicle. Antagonists were tested at 100 µM except for flupenthixol, which was used at 10 µM.

Data set [4] deals with SmGPR-2. Also on record: method as in PMID 20430030. As to conditions: cited from earlier work.
In data set [5] the test system is Saccharomyces cerevisiae strain YEX108. As to the kind of experiment: Drug-induced toxicity control: yeast growth in histidine-supplemented medium. It is filed as cell-based. The settings on record: medium supplemented with histidine (100 µM); drug-treated cells. Here is the method: as §2
Figure 4 Antagonist effects on SmGPR-3 activity. (A) Yeast YEX108 auxotrophic his strain expressing SmGPR-3 was incubated with agonist (DA, 100 µM) and test antagonist or vehicle. Antagonists were tested at 100 µM except for flupenthixol, which was used at 10 µM. The data were normalized relative to the control sample that contained 100 µM DA but no antagonist. To test for drug induced toxicity, assays were repeated in the presence of 100 µM test antagonist in histidine-supplemented (his+) medium, which enables the cell to grow irrespective of receptor activation (His +ve control; see text for details). Abbreviations are as follows: SPIP, spiperone; PROP, propanolol; CLZP, clozapine; BUSP, buspirone; MINS, mianserin; CPRH, cyproheptadine; FLPX, flupenthixol; PRMZ, promethazine; HLRD, haloperidol. […] The error bars are the means ± SEM for 3–4 experiments and at least 2 clones (in triplicates).

The mark [6] stands for this setting: 500 µM, compared to untreated larvae.
[7] abbreviates: drug 100 µM in the presence of 100 µM DA.
[8] abbreviates: 50 µM, compared to untreated larvae.
Where [9] appears, read: 100 µM, 3-day-old schistosomula, 5 min after drug addition.
[10] abbreviates: each amine at 2×10^−4 M, relative to no drug control.

Like-named read-outs stand apart in the source and are kept apart here.

Regarding `CNC[C@H](O)c1ccc(O)c(O)c1` [adrenaline], the “effect on motor activity of schistosomula” value (“effect on motor activity” below) in data set [1] (setting [6]) is on record as “decrease in motility”. In addition, in data set [2], the “SmGPR-3 activation by biogenic amine” value was “stimulated SmGPR-3 activity but not to the same extent as dopamine or epinine”.
With `CN1CCN(C2=Nc3cc(Cl)ccc3Nc3ccccc32)CC1` [clozapine], the “effect on SmGPR-3 activity” value in data set [3] (setting [7]) is recorded as “modest or no significant inhibition”.
For the compound `CN1CCC(=C2c3ccccc3C=Cc3ccccc32)CC1` [cyproheptadine], in data set [3], the “inhibition of SmGPR-3 activity” value is “≈ 70%”.
For `NCCc1ccc(O)c(O)c1` [dopamine], the “effect on motor activity” value was “decrease in motility” in data set [1] (setting [8]); “decreased both the amplitude and frequency of contractions” in data set [1] (setting [9]). The “concentration at which significant inhibition of motility was observed” value in data set [1] is recorded as at least 10 µM. The same compound showed an EC50 in data set [2] of 31 µM. In addition, in data set [2] (setting [10]), the “SmGPR-3 activation by biogenic amine” value is recorded as “selectively activated”.
For `CNCCc1ccc(O)c(O)c1` [epinine], the “effect on motor activity” value is given as “decrease in motility” in data set [1] (setting [8]) and “virtual paralysis” in data set [1] (setting [9]). Besides, the “concentration at which significant inhibition of motility was observed” value in data set [1] is at least 10 µM. This compound showed an EC50 in data set [2] of 28.5 µM. Further, in data set [2] (setting [10]), the “SmGPR-3 activation by biogenic amine” value is “selectively activated”.
On to `OCCN1CCN(CCC=C2c3ccccc3Sc3ccc(C(F)(F)F)cc32)CC1` [flupenthixol], for which, in data set [1] (setting [8]), the “effect on motor activity” value was “significant decrease in motor activity”. Besides, in data set [4], the “inhibition of SmGPR-2” value is “most potent inhibitors of SmGPR-2”. Moreover, the IC50 in data set [3] turned out to be 3.9 µM. Moreover, in data set [5], the “yeast growth in the presence of histidine (toxicity control)” value (from here on “yeast growth in the presence”) is given as “normal or nearly normal growth”.
Turning to `O=C(CCCN1CCC(O)(c2ccc(Cl)cc2)CC1)c1ccc(F)cc1` [haloperidol], the “effect on motor activity” value in data set [1] (setting [6]) was “no significant motor effects”. The “yeast growth in the presence” value in data set [5] was “normal or nearly normal growth”.
For `CNCC(O)c1ccc(O)c(OC)c1` (stereo not shown) [metanephrine], the “increase in the frequency of body wall movements” value in data set [1] (500 µM) was “≈ 3 fold”. In addition, the “effect on motor activity” value in data set [1] (setting [6]) is “marked hyperactivation”. In data set [2] (setting [10]), the “SmGPR-3 activation by biogenic amine” value is listed as “stimulated SmGPR-3 activity but not to the same extent as dopamine or epinine”.
Take `CN1CCN2c3ccccc3Cc3ccccc3C2C1` (stereo not shown) [mianserin]: the “inhibition of SmGPR-3 activity” value in data set [3] was “≈ 70%”.
Turning to `NC[C@H](O)c1ccc(O)c(O)c1` [noradrenaline], the “SmGPR-3 activation by biogenic amine” value in data set [2] (setting [10]) is recorded as “stimulated SmGPR-3 activity but not to the same extent as dopamine or epinine”.
In the case of `CC(CN1c2ccccc2Sc2ccccc21)N(C)C` (stereo not shown) [promethazine], in data set [1] (setting [8]), the “effect on motor activity” value is “significant decrease in motor activity”. Moreover, the “inhibition of SmGPR-2” value in data set [4] is reported as “most potent inhibitors of SmGPR-2”. For the same compound, the IC50 in data set [3] came to 28 µM. Moreover, the “yeast growth in the presence” value in data set [5] is reported as “normal or nearly normal growth”.
As to `CC(C)NCC(O)COc1cccc2ccccc12` (stereo not shown) [propranolol], in data set [3] (setting [7]), the “effect on SmGPR-3 activity” value is recorded as “no effect”.
Turning to `O=C(CCCN1CCC2(CC1)C(=O)NCN2c1ccccc1)c1ccc(F)cc1` [spiperone], in data set [3] (setting [7]), the “enhancement of SmGPR-3 activity” value is about 2 fold.
